# From patent US7238727B2, “Compositions for improving lipid metabolism” (Chugai Seiyaku Kabushiki Kaisha, priority 2000, dated 2007)
# How the values were obtained:
# Format in all cases: in vivo
# [1] = tested on: matured rat models fed with high-fat diets; assay: Peritesticular adipose tissue weight in rats fed a high-fat diet; conditions: for adipose tissue weight less than that of casein+lard group / mean adipose tissue weight relative to casein+lard group: 3.0% L-valine + 8.4% lard; for peritesticular adipose tissue weight: feed with 3.0% L-valine + 8.4% lard, mean±standard deviation, n=3
# Experimental: To evaluate the effects of valine on lipid metabolism, the effects of the administration of L-valine containing feeds were examined on matured rat models fed with high-fat diets.
# 18 Crj:CD(SD) IGS male rats aged 12 weeks (body weight: 420 to 464 g, 443 g on average) were pre-fed for 5 days (not more than 4 animals/cage, temperature: 20 to 26° C., humidity: 30 to 70%, illumination: 8:00 to 20:00). During the pre-feeding period, the animals were maintained on a feed (constant feeding) and water (using a water supplier) as desired.
# (§1) After the completion of the pre-feeding, the animals were divided into 6 groups depending on feed and administration period. Rats of valine+lard groups were fed with a solid feed prepared by adding 8.4% lard (CAMERIA: manufactured by Romi Smilfood B. V.) and 3.0% L-valine (JP, manufactured by Ajinomoto Co., Inc.) to a conventional feed (CMF: manufactured by Oriental Yeast Co., Ltd.) for 2 or 4 weeks. Animals of casein+lard groups (i.e., control groups) were fed with a solid feed prepared by adding 8.4% lard and 3.0% milk-origin casein (manufactured by Wako Pure Chemical Industries, Ltd.) to the conventional feed (CMF: manufactured by Oriental Yeast Co., Ltd.) for 2 or 4 weeks. Animals of normal food groups were fed with a solid feed which was the conventional feed (CMF: manufactured by Oriental Yeast Co., Ltd.) for 2 or 4 weeks. During the experimental period, the rats of each group were maintained on the feed (constant feeding) and water (using a water supplier) as desired. Each group had 3 rats which were fed in a single cage (temperature: 20 to 26° C., humidity: 30 to 70%, illumination: 8:00 to 20:00) throughout the experimental period.
# (§2) After 2 or 4 weeks, the blood samples of the animals of each group were collected from the abdominal aorta and then the animals were sacrificed by bleeding under etherization followed by autopsy. As intraperitoneal adipose tissue, the adipose tissue around the left testis and epididymis was weighed. The collected blood samples were subjected to a serobiochemical examination and the like.
# [2] = tested on: matured rat models fed with high-fat diets; assay: Intraperitoneal adipose tissue area by abdominal CT scanning; conditions: 4 weeks-feeding group
# Text: as §1
# 22 days after the initiation of the experiment, one rat of each of the 4 weeks-feeding groups was subjected to the abdominal CT scanning (slice width: 5 mm) under anesthesia with Nembutal. From the CT image thus obtained, the intraperitoneal adipose tissue area was determined as the mean of the intraperitoneal adipose-containing areas in posterior 4 slices from the sites where no kidney was observed.
# [3] = tested on: matured rat models fed with high-fat diets; assay: Serobiochemical examination of rats fed a high-fat diet
# Text: as §1, §2
# [4] = tested on: rabbit atherosclerotic model; assay: Plaque formation in aortic arch specimens; parameters: key to plaque formation in specimens of aortic arch: +: visible slight plaque formation; ++: visible moderate plaque formation; −: no visible plaque formation; conditions: 13 weeks; for plaque formation in specimens of aortic arch: feed with 0.2% cholesterol + 3.0% L-valine
# Experimental: (§3) In order to evaluate the efficacy of valine on atherosclerosis and fatty liver, an L-valine containing feed was administered to a rabbit atherosclerotic model and its effect was investigated. Nine New Zealand White male rabbits aged 8 weeks (average body weight, 2.06 kg) were divided into three groups (n=3) by feed and fed for 13 weeks (temperature, 20 to 26° C.; humidity, 30 to 70%; illumination, 8:00 to 20:00). The untreated group was given an ordinary feed (NOSAN feed for laboratory animals, LABOR STOCK, manufactured by Nihon Nosan Kogyo, K.K.). As for the atherosclerotic model, the control group was given the ordinary feed plus 0.2% cholesterol (manufactured by Wako Pure Chemical Industries, Ltd.), and the valine group was given the ordinary feed plus 0.2% cholesterol plus 3.0% L-valine (JP, manufactured by Ajinomoto Co., Inc.). Throughout the experiment, the rabbits of each group were maintained on the feed (constant feeding) and water (using a water supplier) as desired. After 13 weeks, blood samples were collected from the abdominal aorta of the animals of each group under etherization and the animals were then sacrificed by bleeding. By subsequent autopsy, the degree of atherosclerotic lesion (plaque formation) in thoracic aorta and the degree of fatty liver were compared. Sections of the thoracic aorta and the liver were also prepared and examined histopathologically for intimal thickening and the formation of fat droplets.
# [5] = tested on: rabbit atherosclerotic model; assay: Intimal thickening in HE stained thoracic aorta sections; conditions: 0.2% cholesterol + 3.0% L-valine, 13 weeks
# Experimental: as §3, with “Nine” for “In order to evaluate the efficacy of valine on atherosclerosis and fatty liver, an L-valine containing feed was administered to a rabbit atherosclerotic model and its effect was investigated. Nine”, “droplets. Sections of the thoracic aorta were HE stained (hematoxylin-eosin stained).” for “droplets.”
# [6] = tested on: rabbit atherosclerotic model; assay: Fatty liver by naked eye and HE stained liver sections; conditions: 0.2% cholesterol + 3.0% L-valine, 13 weeks
# Experimental: as §3, with “Nine” for “In order to evaluate the efficacy of valine on atherosclerosis and fatty liver, an L-valine containing feed was administered to a rabbit atherosclerotic model and its effect was investigated. Nine”
# [7] = 2 weeks feeding, mean±standard deviation, n=3
# [8] = 4 weeks feeding, mean±standard deviation, n=3
smiles,measurement,setting,value
"CC(C)[C@H](N)C(=O)O [valine, L-valine]",adipose tissue weight compared with normal food group,[1]; 2 weeks feeding,smaller than that of the normal food group
same,adipose tissue weight less than that of casein+lard group,[1]; 2 weeks feeding,30%
same,mean adipose tissue weight relative to casein+lard group,[1]; 2 weeks feeding,about 0.70 times
same,peritesticular adipose tissue weight,[1]; 2 weeks feeding,2.55 ± 0.38 g
same,adipose tissue weight compared with normal food group,[1]; 4 weeks feeding,smaller than that of the normal food group
same,adipose tissue weight less than that of casein+lard group,[1]; 4 weeks feeding,26%
same,mean adipose tissue weight relative to casein+lard group,[1]; 4 weeks feeding,about 0.74 times
same,peritesticular adipose tissue weight,[1]; 4 weeks feeding,2.92 ± 0.40 g
same,increase in the adipose tissue weight,"[1]; both 2 weeks and 4 weeks feeding, feed intake almost the same",inhibited
same,increase in the intraperitoneal adipose tissue area versus casein+lard group,[2]; CT,more inhibited
same,intraperitoneal adipose tissue area,"[2]; CT 22 days after initiation, n=1",3.2 cm^2
same,intraperitoneal adipose tissue relative to casein+lard group,"[2]; CT, n=1",about 0.65 times
same,mean free fatty acid level relative to casein+lard group,[3]; 2 weeks feeding,about 0.73 times
same,mean lipid peroxide level relative to casein+lard group,[3]; 2 weeks feeding,about 0.42 times
same,mean triacylglycerol level relative to casein+lard group,[3]; 2 weeks feeding,about 0.54 times
same,mean β-lipoprotein level relative to casein+lard group,[3]; 2 weeks feeding,about 0.53 times
same,mean serum free fatty acid level,[3]; [7],0.35±0.06 mEq/L
same,mean serum lipid peroxide level,[3]; [7],1.1 ± 0.7 nmol/dL
same,mean serum triacylglycerol level,[3]; [7],52.0 ± 21.9 mg/dL
same,mean serum β-lipoprotein level,[3]; [7],33.3 ± 14.5 mg/dL
same,mean free fatty acid level relative to casein+lard group,[3]; 4 weeks feeding,about 0.82 times
same,mean triacylglycerol level relative to casein+lard group,[3]; 4 weeks feeding,about 0.60 times
same,mean β-lipoprotein level relative to casein+lard group,[3]; 4 weeks feeding,about 0.62 times
same,mean serum free fatty acid level,[3]; [8],0.36±0.11 mEq/L
same,mean serum triacylglycerol level,[3]; [8],67.7 ± 33.5 mg/dL
same,mean serum β-lipoprotein level,[3]; [8],41.0 ± 10.8 mg/dL
same,plaque formation compared with control group,"[4]; 0.2% cholesterol + 3.0% L-valine, n=3","no plaque formation was visible, or plaque formation was visible but to a lesser extent than in the control group"
same,plaque formation in specimens of aortic arch,[4]; animal 1,−
same,plaque formation in specimens of aortic arch,[4]; animal 2,−
same,plaque formation in specimens of aortic arch,[4]; animal 3,+
same,intimal thickening of thoracic aorta,[5],intimal thickening was hardly visible
same,"yellowing of the liver (fatty liver), naked eye",[6],"no yellowing of the liver was observed, or yellowing of the liver was visible but to a lesser extent than in the control group"
same,fat droplets and swelling of hepatocytes,[6]; HE stained liver sections,hepatocytes contained such a small number of fat droplets that they experienced no visible swelling
